Laboratory results taken from ChEMBL document CHEMBL4813969, “Design, synthesis and evaluation of 3-amide-5-aryl benzoic acid derivatives as novel P2Y14R antagonists with potential high efficiency against acute gouty arthritis” (Eur J Med Chem, 2021).
In brackets after ≈: the same amount, converted by molar mass. Activity calls are given as the source filed them. No cut-off for these calls is given here.

Columns and labels:
[1] = Chemical stability of compound in DMSO; assay type: physicochemical
P2Y purinoceptor 14 = target: T1, P2Y purinoceptor 14 (Homo sapiens, UniProt Q15391); experiment: Antagonist activity at P2Y14 (unknown origin) expressed in HEK293 cells assessed as reduction in cAMP production incubated for 30 mins by ADP-glo assay; assay type: functional, cell-based
T1 sequence (Q15391 whole entry): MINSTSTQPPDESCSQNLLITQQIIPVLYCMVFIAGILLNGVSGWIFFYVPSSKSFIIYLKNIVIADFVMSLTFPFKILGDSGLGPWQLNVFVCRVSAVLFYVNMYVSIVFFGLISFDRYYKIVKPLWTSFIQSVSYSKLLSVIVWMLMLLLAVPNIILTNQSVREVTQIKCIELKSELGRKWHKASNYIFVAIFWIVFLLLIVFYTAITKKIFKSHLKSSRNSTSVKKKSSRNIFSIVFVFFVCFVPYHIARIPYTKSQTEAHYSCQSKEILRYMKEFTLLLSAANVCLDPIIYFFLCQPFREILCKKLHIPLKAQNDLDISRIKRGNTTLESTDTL

[2] = target: T2, P2Y purinoceptor 14 (Homo sapiens) (UniProt Q15391); settings: time 30.0 min
T2 sequence (whole entry): T1 sequence (Q15391 whole entry)

[3] = In vivo inhibition of MSU-induced pyroptosis in ICR mouse model of acute gout arthritis assessed as viable macrophage cells in foot tissue at 10 mg/kg, sc incubated for 24 hrs by caspase-1 and PI staining based flow cytometric analysis (reference value: 34.3 %); assay type: functional
[4] = Half life in mouse at 10 mg/kg, po; assay type: ADME, organism-based; settings: in vivo
[5] = Volume of distribution at steady state in mouse at 5 mg/kg, iv; assay type: ADME, organism-based; settings: in vivo, read-out: Vdss
[6] = AUC in mouse at 10 mg/kg, po; assay type: ADME, organism-based; design: dose 10 mg/kg; settings: in vivo
Mus musculus [7] = experiment: Downregulation of MSU-induced NLRP3 expression in foot tissue of MSU-induced acute gout arthritis ICR mouse model at 10 mg/kg, sc measured upto 24 hrs by Western blot analysis; assay type: functional, organism-based; settings: time hrs <=24
[8] = Half life in mouse at 5 mg/kg, iv; assay type: ADME, organism-based; settings: in vivo
Mus musculus [9] = experiment: Inhibition of MSU-induced IL-1beta level in foot tissue of MSU-induced acute gout arthritis ICR mouse model at 10 mg/kg, sc measured upto 24 hrs by Western blot analysis; assay type: functional, organism-based; settings: time hrs <=24
Mus musculus [10] = experiment: Inhibition of MSU-induced GSDMD-NT level in foot tissue of MSU-induced acute gout arthritis ICR mouse model at 10 mg/kg, sc measured upto 24 hrs by Western blot analysis; assay type: functional, organism-based; settings: time hrs <=24
Mus musculus [11] = experiment: Inhibition of MSU-induced IL-8 level in foot tissue of MSU-induced acute gout arthritis ICR mouse model at 10 mg/kg, sc measured upto 24 hrs by Western blot analysis; assay type: functional, organism-based; settings: time hrs <=24
[12] = Volume of distribution at steady state in mouse at 10 mg/kg, po; assay type: ADME, organism-based; settings: in vivo
Mus musculus [13] = experiment: Antiarthritic activity against MSU-induced acute gout arthritis ICR mouse model assessed as reduction in infiltration of inflammatory cells at 10 mg/kg, sc measured upto 24 hrs; assay type: functional, organism-based; settings: time hrs <=24
[14] = Tmax in mouse at 5 mg/kg, iv; assay type: ADME, organism-based; settings: in vivo
Mus musculus [15] = experiment: Antiarthritic activity against MSU-induced acute gout arthritis ICR mouse model assessed as reduction in paw swelling at 10 mg/kg, sc measured upto 24 hrs; assay type: functional, organism-based; settings: time hrs <=24
[16] = Aqueous solubility of compound in PBS buffer at pH 7.4 incubated for overnight by UV-spectrometry; assay type: physicochemical
[17] = In vivo inhibition of MSU-induced pyroptosis in ICR mouse model of acute gout arthritis assessed as late apoptotic macrophage cells in foot tissue at 10 mg/kg, sc incubated for 24 hrs by caspase-1 and PI staining based flow cytometric analysis (reference value: 21.6 %); assay type: functional
[18] = Cmax in mouse at 10 mg/kg, po; assay type: ADME, organism-based; design: route oral, dose 10 mg/kg; settings: in vivo
[19] = In vivo inhibition of MSU-induced pyroptosis in ICR mouse model of acute gout arthritis assessed as necrotic macrophage cells in foot tissue at 10 mg/kg, sc incubated for 24 hrs by caspase-1 and PI staining based flow cytometric analysis (reference value: 31.4 %); assay type: functional
Mus musculus [20] = experiment: Downregulation of MSU-induced caspase-1 P20 expression in foot tissue of MSU-induced acute gout arthritis ICR mouse model at 10 mg/kg, sc measured upto 24 hrs by Western blot analysis; assay type: functional, organism-based; settings: time hrs <=24
[21] = Metabolic stability in human liver microsomes assessed as half life at […] incubated for 45 mins by LC-MS/MS analysis; assay type: ADME, Microsome
[22] = Oral bioavailability in mouse at 10 mg/kg; assay type: ADME, organism-based; settings: in vivo
[23] = In vivo inhibition of MSU-induced pyroptosis in ICR mouse model of acute gout arthritis assessed as early apoptotic macrophage cells in foot tissue at 10 mg/kg, sc incubated for 24 hrs by caspase-1 and PI staining based flow cytometric analysis (reference value: 12.7 %); assay type: functional
[24] = Clearance in mouse at 10 mg/kg, po; assay type: ADME, organism-based; settings: in vivo
[25] = Cmax in mouse at 5 mg/kg, iv; assay type: ADME, organism-based; design: route intravenous, dose 5 mg/kg; settings: in vivo
Mus musculus [26] = experiment: Downregulation of MSU-induced ASC expression in foot tissue of MSU-induced acute gout arthritis ICR mouse model at 10 mg/kg, sc measured upto 24 hrs by Western blot analysis; assay type: functional, organism-based; settings: time hrs <=24
[27] = AUC in mouse at 5 mg/kg, iv; assay type: ADME, organism-based; design: dose 5 mg/kg; settings: in vivo
[28] = HEK293, filed as antagonist, dose 100.0 nM

Cc1ccc(C(=O)Nc2cc(C(=O)O)cc(-c3c(C)noc3C)c2)cc1
Stabilty [1]: Unstable | IC50 (P2Y purinoceptor 14): 2.95 nM | inhibition [2, 28]: 82.3%

Cc1ccc(C(=O)Nc2cc(C(=O)O)cc(-c3ccoc3)c2)cc1
inhibition in vivo at 10 mg/kg [3]: 43.2% | half-life [4]: 2.56 h | Vd [5]: 0.782 L/kg | AUC [6]: 7280 ng·h/mL | Stabilty [1]: Stable | Activity (Mus musculus [7]): Active | half-life [8]: 2.32 h | inhibition (Mus musculus [9]): Active | inhibition (Mus musculus [10]): Active | inhibition (Mus musculus [11]): Active | IC50 (P2Y purinoceptor 14): 2.18 nM | Vdss [12]: 0.21267 L/kg | inhibition [2, 28]: 93.4% | Activity (Mus musculus [13]): Active | Tmax [14]: 5 min | Activity (Mus musculus [15]): Active | solubility [16]: 77.6 µg/mL (≈ 241 µM) | inhibition in vivo at 10 mg/kg [17]: 10.9% | Cmax [18]: 1800 ng/mL | inhibition in vivo at 10 mg/kg [19]: 33% | Activity (Mus musculus [20]): Active | half-life [21]: > 1 h | bioavailability [22]: 48.3% | inhibition in vivo at 10 mg/kg [23]: 13% | CL/F [24]: 6.03 mL/min/kg | Cmax [25]: 19300 ng/mL | Activity (Mus musculus [26]): Active | AUC [27]: 843849 ng·min/mL

Cc1ccc(C(=O)Nc2cc(C(=O)O)cc(-c3ccc[nH]3)c2)cc1
inhibition [2, 28]: 46%

Cc1ccc(C(=O)Nc2cc(C(=O)O)cc(-c3cccs3)c2)cc1
inhibition [2, 28]: 68.8%

Cc1ccc(C(=O)Nc2cc(C(=O)O)cc(-c3ccc(C)o3)c2)cc1
inhibition ([2]; HEK293, dose 100.0 nM): 16.1%

Cc1ccc(C(=O)Nc2cc(C(=O)O)cc(-c3ccco3)c2)cc1
inhibition [2, 28]: 61.1%

Cc1ccc(C(=O)Nc2cc(C(=O)O)cc(-c3ccsc3)c2)cc1
IC50 (P2Y purinoceptor 14): 9.74 nM | inhibition [2, 28]: 83%

Cc1ccc(C(=O)Nc2cc(C(=O)O)cc(-c3ccncc3)c2)cc1
inhibition [2, 28]: 72.1%

COc1ccc(-c2cc(NC(=O)c3ccc(C)cc3)cc(C(=O)O)c2)cc1
inhibition [2, 28]: 79.1%

Cc1ccc(C(=O)Nc2cc(C(=O)O)cc(-c3cc[nH]n3)c2)cc1
Stabilty [1]: Unstable | IC50 (P2Y purinoceptor 14): 2.63 nM | inhibition [2, 28]: 86.8%

Cc1ccc(C(=O)Nc2cc(C(=O)O)cc(-c3ccc(C)s3)c2)cc1
inhibition [2, 28]: 60.2%

O=C(O)c1cc(-c2ccc(C3CCNCC3)cc2)c2ccc(-c3ccc(C(F)(F)F)cc3)cc2c1 [PPTN]
inhibition in vivo at 10 mg/kg [3]: 65.1% | Activity (Mus musculus [7]): Active | inhibition (Mus musculus [9]): Active | inhibition (Mus musculus [10]): Active | inhibition (Mus musculus [11]): Active | Activity (Mus musculus [13]): Active | Activity (Mus musculus [15]): Active | solubility [16]: < 5 µg/mL | inhibition in vivo at 10 mg/kg [17]: 6.41% | inhibition in vivo at 10 mg/kg [19]: 11.1% | Activity (Mus musculus [20]): Active | bioavailability [22]: 7% | inhibition in vivo at 10 mg/kg [23]: 17.3% | Activity (Mus musculus [26]): Active

Cc1ccc(C(=O)Nc2cc(C(=O)O)cc(-c3ccccc3)c2)cc1
IC50 (P2Y purinoceptor 14): 4.85 nM | inhibition [2, 28]: 87% | solubility [16]: 46.3 µg/mL (≈ 140 µM)

Cc1ccc(C(=O)Nc2cc(C(=O)O)cc(-c3cnc(N)nc3)c2)cc1
inhibition [2, 28]: 68.6%

CC(=O)c1ccc(-c2cc(NC(=O)c3ccc(C)cc3)cc(C(=O)O)c2)s1
inhibition [2, 28]: 43.7%

Cc1ccc(C(=O)Nc2cc(C(=O)O)cc(-c3cccnc3)c2)cc1
inhibition [2, 28]: 79.1%

Cc1ccc(C(=O)Nc2cc(C(=O)O)cc(-c3ccc(C4CCNCC4)cc3)c2)cc1
inhibition [2, 28]: 85.3% | bioavailability [22]: 6%

Cc1ccc(C(=O)Nc2cc(C(=O)O)cc(-c3cncnc3)c2)cc1
inhibition [2, 28]: 65.7%

COc1ncc(-c2cc(NC(=O)c3ccc(C)cc3)cc(C(=O)O)c2)cn1
inhibition [2, 28]: 72.5%
